# Reference: US20220363686A1 (AiCuris GmbH & Co. KG, priority 2018, published 2022)
# How the values were obtained:
# [1] = system: HBV; experiment: Determination of HBV DNA from the supernatants of HepAD38 cells (anti-HBV activity); format: cell-based, hepatitis B virus; details: Hepatitis B virus, HePAD38, 144 h, HBV DNA in HepAD38 supernatant, day 6, qPCR; read-out: Cell Activity
# Method in brief: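 HepAD38 cells (60,000/well) seeded in tetracycline-free medium to induce HBV, treated with half-log serial compound dilutions for 6 days at 37 °C. HBV DNA purified from filtered supernatant and quantified by real-time PCR against HBV plasmid standards; EC50 from relative copy numbers by non-linear regression.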
# [2] = target: HBV core protein (C-terminal truncated core protein containing 149 amino acids of the N-terminal assembly domain) (UniProt P03146); experiment: Biochemical capsid assembly assay (fluorescence quenching); set-up: rows headed: Assembly Activity; other: BODIPY-FL labelled core protein, assembly started with NaCl, read after 6 min; details: read-out: Assembly Activity; BODIPY-FL labelled core protein, assembly started with NaCl, read after 6 min
# Chain of HBV core protein (C-terminal truncated core protein containing 149 amino acids of the N-terminal assembly domain) (P03146 whole entry, the tested form may be a part): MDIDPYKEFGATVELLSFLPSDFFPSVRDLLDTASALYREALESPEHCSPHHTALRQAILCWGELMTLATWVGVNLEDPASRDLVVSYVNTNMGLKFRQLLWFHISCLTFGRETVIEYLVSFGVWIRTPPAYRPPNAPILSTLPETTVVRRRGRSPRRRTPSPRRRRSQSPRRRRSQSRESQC
# Method in brief: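 N-terminal assembly domain (residues 1–149) plus C-terminal Cys150, E. coli-expressed, BODIPY-FL-maleimide labelled, used at 1.0–2.0 μM in 50 mM HEPES pH 7.5 with 0.5% DMSO. Assembly started with NaCl ([…]); fluorescence quenching (ex 477/em 525 nm) read after 6 min. 8-point compound series; EC50 by non-linear regression.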
# [3] = Cell viability assay (AlamarBlue); details: human, HepAD38 cells
# Experimental: Using the AlamarBlue viability assay cytotoxicity was evaluated in HepAD38 cells in the presence of 0.3 μg/ml tetracycline, which blocks the expression of the HBV genome. Assay condition and plate layout were in analogy to the anti-HBV assay, however other controls were used. On each assay plate six wells containing untreated HepAD38 cells were used as the 100% viability control, and six wells filled with assay medium only were used as 0% viability control. In addition, a geometric concentration series of cycloheximide starting at 60 μM final assay concentration was used as positive control in each experiment. After six days incubation period Alamar Blue Presto cell viability reagent (ThermoFisher, Dreieich) was added in 1/11 dilution to each well of the assay plate. After an incubation for 30 to 45 min at 37° C. the fluorescence signal, which is proportional to the number of living cells, was read using a Tecan Spectrafluor Plus plate reader with an excitation filter 550 nm and emission filter 595 nm, respectively. Data were normalized into percentages of the untreated control (100% viability) and assay medium (0% viability) before CC50 values were calculated using non-linear regression and the GraphPad Prism 6.0 (GraphPad Software, La Jolla, USA). Mean EC50 and CC50 values were used to calculate the selectivity index (SI=CC50/EC50) for each test compound.
Structure (SMILES),EC50 [1],IC50 [2],CC50 at 6 days [3]
"O=C(c1cc2cc(F)c(Cl)cc2[nH]1)N1CCn2ncc(C(=O)N3CCC(O)CC34CC4)c2C1 (stereo not drawn) [Example 117, 4-[5-(6-chloro-5-fluoro-1H-indole-2-carbonyl)-4H,5H,6H,7H-pyrazolo[1,5-a]pyrazine-3-carbonyl]-4-azaspiro[2.5]octan-7-ol]",< 1 µM,< 5 µM,> 10 µM
"O=C(c1cc2c(Cl)cccc2[nH]1)N1CCn2ncc(C(=O)N3CCC(O)CC34CC4)c2C1 (stereo not drawn) [Example 118, 4-[5-(4-chloro-1H-indole-2-carbonyl)-4H,5H,6H,7H-pyrazolo[1,5-a]pyrazine-3-carbonyl]-4-azaspiro[2.5]octan-7-ol]",< 1 µM,< 5 µM,> 10 µM
"O=C(c1cc2c(F)c(F)ccc2[nH]1)N1CCn2ncc(C(=O)N3CCC(O)CC34CC4)c2C1 (stereo not drawn) [Example 119, 4-[5-(4,5-difluoro-1H-indole-2-carbonyl)-4H,5H,6H,7H-pyrazolo[1,5-a]pyrazine-3-carbonyl]-4-azaspiro[2.5]octan-7-ol]",< 1 µM,< 5 µM,> 10 µM
"Cc1c(F)ccc2[nH]c(C(=O)N3CCn4ncc(C(=O)N5CCC(O)CC56CC6)c4C3)cc12 (stereo not drawn) [Example 120, 4-[5-(5-fluoro-4-methyl-1H-indole-2-carbonyl)-4H,5H,6H,7H-pyrazolo[1,5-a]pyrazine-3-carbonyl]-4-azaspiro[2.5]octan-7-ol]",< 1 µM,< 5 µM,> 10 µM
"Cc1cc(F)cc2[nH]c(C(=O)N3CCn4ncc(C(=O)N5CCC(O)CC56CC6)c4C3)cc12 (stereo not drawn) [Example 121, 4-[5-(6-fluoro-4-methyl-1H-indole-2-carbonyl)-4H,5H,6H,7H-pyrazolo[1,5-a]pyrazine-3-carbonyl]-4-azaspiro[2.5]octan-7-ol]",< 1 µM,< 5 µM,> 10 µM
"O=C(c1cc2ccccc2[nH]1)N1CCn2ncc(C(=O)N3CCC(F)(F)C3)c2C1 [Example 122, 2-[3-(3,3-difluoropyrrolidine-1-carbonyl)-4H,5H,6H,7H-pyrazolo[1,5-a]pyrazine-5-carbonyl]-1H-indole]",< 1 µM,< 5 µM,> 10 µM
"O=C(NC1(CCOC(F)F)CCC1)c1cnn2c1CN(C(=O)c1cc3ccccc3[nH]1)CC2 [Example 123, N-{1-[2-(difluoromethoxy)ethyl]cyclobutyl}-5-(1H-indole-2-carbonyl)-4H,5H,6H,7H-pyrazolo[1,5-a]pyrazine-3-carboxamide]",< 1 µM,< 5 µM,> 10 µM
"O=C(NC1(CCOC(F)F)CCCC1)c1cnn2c1CN(C(=O)c1cc3ccccc3[nH]1)CC2 [Example 124, N-{1-[2-(difluoromethoxy)ethyl]cyclopentyl}-5-(1H-indole-2-carbonyl)-4H,5H,6H,7H-pyrazolo[1,5-a]pyrazine-3-carboxamide]",< 1 µM,< 5 µM,> 10 µM
"O=C(NC1(CCOC(F)F)CCOCC1)c1cnn2c1CN(C(=O)c1cc3ccccc3[nH]1)CC2 [Example 125, N-{4-[2-(difluoromethoxy)ethyl]oxan-4-yl}-5-(1H-indole-2-carbonyl)-4H,5H,6H,7H-pyrazolo[1,5-a]pyrazine-3-carboxamide]",< 1 µM,< 5 µM,> 10 µM
"CN(C(=O)c1cnn2c1CN(C(=O)c1cc3ccccc3[nH]1)CC2)C1(CCOC(F)F)CCC1 [Example 126, N-{1-[2-(difluoromethoxy)ethyl]cyclobutyl}-5-(1H-indole-2-carbonyl)-N-methyl-4H,5H,6H,7H-pyrazolo[1,5-a]pyrazine-3-carboxamide]",1 to 10 µM,< 5 µM,> 10 µM
"CN(C(=O)c1cnn2c1CN(C(=O)c1cc3ccccc3[nH]1)CC2)C1(CCOC(F)F)CCCC1 [Example 127, N-{1-[2-(difluoromethoxy)ethyl]cyclopentyl}-5-(1H-indole-2-carbonyl)-N-methyl-4H,5H,6H,7H-pyrazolo[1,5-a]pyrazine-3-carboxamide]",1 to 10 µM,< 5 µM,> 10 µM
CN(C(=O)c1cnn2c1CN(C(=O)c1cc3ccccc3[nH]1)CC2)C1(CCOC(F)F)CCOCC1 [Example 128],1 to 10 µM,< 5 µM,> 10 µM
"CN(CCO)C(=O)c1cnn2c1CN(C(=O)c1cc3c(F)cc(F)cc3[nH]1)CC2 [Example 129, 5-(4,6-difluoro-1H-indole-2-carbonyl)-N-(2-hydroxyethyl)-N-methyl-4H,5H,6H,7H-pyrazolo[1,5-a]pyrazine-3-carboxamide]",< 1 µM,< 5 µM,> 10 µM
"CN(C(=O)c1cnn2c1CN(C(=O)c1cc3ccccc3[nH]1)CC2)C1CCC1 [Example 133, N-cyclobutyl-5-(1H-indole-2-carbonyl)-N-methyl-4H,5H,6H,7H-pyrazolo[1,5-a]pyrazine-3-carboxamide]",1 to 10 µM,< 5 µM,> 10 µM
"O=C(NC1COC1)c1cnn2c1CN(C(=O)c1cc3ccccc3[nH]1)CC2 [Example 134, 5-(1H-indole-2-carbonyl)-N-(oxetan-3-yl)-4H,5H,6H,7H-pyrazolo[1,5-a]pyrazine-3-carboxamide]",1 to 10 µM,< 5 µM,> 10 µM
"CN(C(=O)c1cnn2c1CN(C(=O)c1cc3ccccc3[nH]1)CC2)C1COC1 [Example 135, 5-(1H-indole-2-carbonyl)-N-methyl-N-(oxetan-3-yl)-4H,5H,6H,7H-pyrazolo[1,5-a]pyrazine-3-carboxamide]",< 1 µM,< 5 µM,> 10 µM
"CN(C(=O)c1cnn2c1CN(C(=O)c1cc3ccccc3[nH]1)CC2)C1(C)COC1 [Example 136, 5-(1H-indole-2-carbonyl)-N-methyl-N-(3-methyloxetan-3-yl)-4H,5H,6H,7H-pyrazolo[1,5-a]pyrazine-3-carboxamide]",1 to 10 µM,< 5 µM,> 10 µM
"CN(CC1(O)CCC1)C(=O)c1cnn2c1CN(C(=O)c1cc3ccccc3[nH]1)CC2 [Example 137, N-[(1-hydroxycyclobutyl)methyl]-5-(1H-indole-2-carbonyl)-N-methyl-4H,5H,6H,7H-pyrazolo[1,5-a]pyrazine-3-carboxamide]",< 1 µM,< 5 µM,> 10 µM
"CN(C(=O)c1cnn2c1CN(C(=O)c1cc3ccccc3[nH]1)CC2)C1(C2OCCO2)CC1 [Example 138, N-[1-(1,3-dioxolan-2-yl)cyclopropyl]-5-(1H-indole-2-carbonyl)-N-methyl-4H,5H,6H,7H-pyrazolo[1,5-a]pyrazine-3-carboxamide]",< 1 µM,< 5 µM,> 10 µM
"O=C(NC1(COC(F)F)CC1)c1cnn2c1CN(C(=O)c1cc3cc(F)c(F)cc3[nH]1)CC2 [Example 139, 5-(5,6-difluoro-1H-indole-2-carbonyl)-N-{1-[(difluoromethoxy)methyl]cyclopropyl}-4H,5H,6H,7H-pyrazolo[1,5-a]pyrazine-3-carboxamide]",< 1 µM,< 5 µM,> 10 µM
"CN(C(=O)c1cnn2c1CN(C(=O)c1cc3ccccc3[nH]1)CC2)C1([C@H]2OC[C@H](N)CO2)CC1 [Example 141, 5-(1H-indole-2-carbonyl)-N-methyl-N-{1-[(2r,5r)-5-amino-1,3-dioxan-2-yl]cyclopropyl}-4H,5H,6H,7H-pyrazolo[1,5-a]pyrazine-3-carboxamide]",< 1 µM,< 5 µM,> 10 µM
"CC1Cn2ncc(C(=O)N[C@H](C)C(F)(F)F)c2CN1C(=O)c1cc2ccccc2[nH]1 (stereo partly drawn) [Example 142, 5-(1H-indole-2-carbonyl)-6-methyl-N-[(2R)-1,1,1-trifluoropropan-2-yl]-4H,5H,6H,7H-pyrazolo[1,5-a]pyrazine-3-carboxamide]",< 1 µM,< 5 µM,> 10 µM
"CC1Cn2ncc(C(=O)N[C@H](C)C(F)(F)F)c2CN1C(=O)c1cc2c(F)c(F)ccc2[nH]1 (stereo partly drawn) [Example 143, 5-(4,5-difluoro-1H-indole-2-carbonyl)-6-methyl-N-[(2R)-1,1,1-trifluoropropan-2-yl]-4H,5H,6H,7H-pyrazolo[1,5-a]pyrazine-3-carboxamide]",< 1 µM,< 5 µM,> 10 µM
"Cc1c(F)ccc2[nH]c(C(=O)N3Cc4c(C(=O)N[C@H](C)C(F)(F)F)cnn4CC3C)cc12 (stereo partly drawn) [Example 144, 5-(5-fluoro-4-methyl-1H-indole-2-carbonyl)-6-methyl-N-[(2R)-1,1,1-trifluoropropan-2-yl]-4H,5H,6H,7H-pyrazolo[1,5-a]pyrazine-3-carboxamide]",< 1 µM,< 5 µM,> 10 µM
"CC1Cn2ncc(C(=O)N[C@H](C)C(F)(F)F)c2CN1C(=O)c1cc2c(Cl)cccc2[nH]1 (stereo partly drawn) [Example 145, 5-(4-chloro-1H-indole-2-carbonyl)-6-methyl-N-[(2R)-1,1,1-trifluoropropan-2-yl]-4H,5H,6H,7H-pyrazolo[1,5-a]pyrazine-3-carboxamide]",< 1 µM,< 5 µM,> 10 µM
